Test results taken from PubChem BioAssay AID1259407 (Chemical Carcinogenesis Research Information System (CCRIS), 2018).
Calls of active or inactive are those of the source. The rule behind the calls is not given here.

Test system: CCRIS mutagenicity, Ames/micronucleus/aberration tests
Experiment: CCRIS mutagenicity studies
[1] = Test System: AMES SALMONELLA TYPHIMURIUM, Strain/Indicator: TA102, Metabolic Activation: NONE, Method: STANDARD PLATE
[2] = Test System: AMES SALMONELLA TYPHIMURIUM, Strain/Indicator: TA98, Metabolic Activation: NONE, Method: STANDARD PLATE
[3] = Test System: AMES SALMONELLA TYPHIMURIUM, Strain/Indicator: TA98, Metabolic Activation: RAT, LIVER, S-9, AROCLOR 1254, Method: STANDARD PLATE
[4] = Test System: AMES SALMONELLA TYPHIMURIUM, Strain/Indicator: TA100, Metabolic Activation: NONE, Method: STANDARD PLATE
[5] = Test System: AMES SALMONELLA TYPHIMURIUM, Strain/Indicator: TA100, Metabolic Activation: RAT, LIVER, S-9, AROCLOR 1254, Method: STANDARD PLATE

With `CCOC(=O)Nc1ccc(SC[C@@H]2CO[C@@](Cn3ccnc3)(c3ccc(Cl)cc3Cl)O2)cc1` the mutagenic call (End Point: IN VIVO MICRONUCLEUS, Test System: BLOOD ERYTHROCYTES, Species: MOUSE, Strain/Sex: CD-1/MALE, Route: ORAL) was “active; positive (at 48 and 72 hr at higher dose)”.

For `CN1CCN(c2c(F)cc3c(=O)c(C(=O)O)cn4c3c2OCN4C)CC1`, the mutagenic call [1] was “active; positive” and the mutagenic call (Test System: CHINESE HAMSTER V-79, Strain/Indicator: V-79 (HPRT)/6-THIOGUANINE, Metabolic Activation: RAT, LIVER, S-9, AROCLOR 1254) was “active; positive”.

With `[N-]=[N+]=Nc1nc2ccccc2[nH]1` the mutagenic call [2] was “active; positive”.

With `CCCCOc1cc(N=Nc2ccc(NCCO)cc2NCCO)ccc1N=Nc1c(S(=O)(=O)O)cc2ccc(N)cc2c1O` the mutagenic call [2] was “inactive; negative”, the mutagenic call [3] was “active; positive” and the mutagenic call [4] was “inactive; negative”. The mutagenic call [5] was “inactive; negative”, the mutagenic call (Test System: AMES SALMONELLA TYPHIMURIUM, Strain/Indicator: TA1538, Metabolic Activation: NONE, Method: STANDARD PLATE) was “inactive; negative” and the mutagenic call (Test System: AMES SALMONELLA TYPHIMURIUM, Strain/Indicator: TA1538, Metabolic Activation: RAT, LIVER, S-9, AROCLOR 1254, Method: STANDARD PLATE) was “active; positive”.

With `CN1CCN(c2ccc3nc(Cc4ccc5nc(-c6ccc(N(CCCl)CCCl)cc6)[nH]c5c4)[nH]c3c2)CC1` the mutagenic call [2] was “inactive; negative”, the mutagenic call [4] was “inactive; negative” and the mutagenic call [1] was “inactive; negative”.

In the case of `CCN(CC)C(=S)SSC[C@H](NC(C)=O)C(=O)O`, the mutagenic call (Test System: AMES SALMONELLA TYPHIMURIUM, Strain/Indicator: TA98, Metabolic Activation: NONE, Method: PREINCUBATION) is reported as “inactive; negative”, the mutagenic call [2] is reported as “inactive; negative” and the mutagenic call (Test System: AMES SALMONELLA TYPHIMURIUM, Strain/Indicator: TA98, Metabolic Activation: RAT, LIVER, S-9, AROCLOR 1254, Method: PREINCUBATION) is reported as “inactive; negative”. For the same molecule, the mutagenic call [3] was “inactive; negative”, the mutagenic call (Test System: AMES SALMONELLA TYPHIMURIUM, Strain/Indicator: TA100, Metabolic Activation: NONE, Method: PREINCUBATION) was “inactive; negative” and the mutagenic call [4] was “inactive; negative”. For the same molecule, the mutagenic call (Test System: AMES SALMONELLA TYPHIMURIUM, Strain/Indicator: TA100, Metabolic Activation: RAT, LIVER, S-9, AROCLOR 1254, Method: PREINCUBATION) was “inactive; negative” and the mutagenic call [5] was “inactive; negative”.

With `C[C@]12CC[C@@H]3c4cc(O)c(O)cc4CC[C@H]3[C@@H]1CC[C@@H]2O` the mutagenic call (End Point: In vitro micronucleus, Test System: Human lymphocytes, Metabolic Activation: None) was “active; positive only at 10 ug/ml in cytochalasin block micronuclei; no dose response”, the mutagenic call (Test System: Ames Salmonella typhimurium, Strain/Indicator: TA98, Metabolic Activation: None, Method: Standard plate) was “inactive; negative” and the mutagenic call (Test System: Ames Salmonella typhimurium, Strain/Indicator: TA98, Metabolic Activation: Rat, liver, S-9, Method: Standard plate) was “inactive; negative”. The mutagenic call (Test System: Ames Salmonella typhimurium, Strain/Indicator: TA100, Metabolic Activation: None, Method: Standard plate) was “inactive; negative” and the mutagenic call (Test System: Ames Salmonella typhimurium, Strain/Indicator: TA100, Metabolic Activation: Rat, liver, S-9, Method: Standard plate) was “inactive; negative”.

`O[C@@H]1C=Cc2c(cc3ccc4cccc5ccc2c3c45)[C@H]1O` was tested, and the mutagenic call (Test System: CHINESE HAMSTER V-79, Strain/Indicator: V-79/OUABAIN, Metabolic Activation: HAMSTER, EMBRYO, CELL-MEDIATED, Method: STANDARD PLATE) was “active; positive”.

`ClC(Cl)C(Cl)(Cl)Cl` was tested, and the mutagenic call (End Point: IN VITRO CHROMOSOMAL ABERRATIONS, Test System: CHINESE HAMSTER LUNG FIBROBLAST CELLS (CHL/IU), Metabolic Activation: RAT, LIVER, S-9, PHENOBARBITAL AND 5,6-BENZOFLAVONE) was “inactive; negative”, the mutagenic call (End Point: IN VITRO CHROMOSOMAL ABERRATIONS, Test System: CHINESE HAMSTER OVARY CELLS, Metabolic Activation: NONE) was “inactive; negative” and the mutagenic call (End Point: IN VITRO CHROMOSOMAL ABERRATIONS, Test System: CHINESE HAMSTER OVARY CELLS, Metabolic Activation: RAT, LIVER, S-9, AROCLOR 1254) was “inactive; negative”. For the same molecule, the mutagenic call (Test System: MOUSE LYMPHOMA, Strain/Indicator: L5178Y (TK+/TK-), Metabolic Activation: NONE, Method: MICROWELL) was “active; positive” and the mutagenic call (Test System: MOUSE LYMPHOMA, Strain/Indicator: L5178Y (TK+/TK-), Metabolic Activation: S-9, Method: MICROWELL) was “inactive; negative”.
